Structures can show the parent of a compound that is named as a salt. Blank lines part the entries; values can stand above or below the compound they belong to.
Columns and labels:
physchem = type: physicochemical
Excerpt: The following data and examples serve to illustrate the invention.

[1] = in words, background; cited from earlier work
[2] = in words, background; cited from earlier work; remark: listed apart in the source
malarial infections = settings: in words, background; cited from earlier work

solubility (physchem; triglycerides, organic solvent or mixture, solubility in triglycerides): > 80000 µg/mL
SMILES: CCCCN(CCCC)CCC(O)c1cc2c(Cl)cc(Cl)cc2c2cc(C(F)(F)F)ccc12 (centres unmarked) [crystalline halofantrine free base]

solubility (physchem; peanut oil, organic solvent or mixture, miscible/soluble with peanut oil): > 400000 µg/mL
SMILES: CCCCN(CCCC)CCC(O)c1cc2c(Cl)cc(Cl)cc2c2cc(C(F)(F)F)ccc12 (centres unmarked) [amorphous halofantrine free base]

solubility (physchem; aqueous solutions, solubility in aqueous solutions): ~1 µg/mL
solubility (physchem; peanut oil, organic solvent or mixture, solubility in a triglyceride lipid such as peanut oil): < 1000 µg/mL
SMILES: CCCCN(CCCC)CCC(O)c1cc2c(Cl)cc(Cl)cc2c2cc(C(F)(F)F)ccc12 (centres unmarked) [halofantrine hydrochloride]
aqueous and lipid solubility [1]: poor
absorption after oral administration [2]: poor and often variable
effectiveness in the treatment of malarial infections (malarial infections): very effective

lipid solubility and miscibility (physchem): unexpectedly high
SMILES: CCCCN(CCCC)CCC(O)c1cc2c(Cl)cc(Cl)cc2c2cc(C(F)(F)F)ccc12 (centres unmarked) [halofantrine free base]

— US5968987A, “Halofantrine free base for the treatment of malaria and compositions” (priority 1994, dated 1999)
